According to patent US20120040956A1, “INHIBITORS OF HIF-1 PROTEIN ACCUMULATION” (INTERMED DISCOVERY GMBH, priority 2008, published 2012):

Columns and labels:
HUVEC [1] = assay: Spheroid-based angiogenesis assay, Deferoxamine (hypoxia) induced HUVEC sprouting; format: cell-based, human
Protocol: (§1) Prior application the stock solution [100 mM] of IMD-019064 was diluted 1:10 in DMSO and serially diluted in half logarithmic steps covering the concentration range from 10 mM to 1 μM using 100% DMSO. The final assay concentration ranged from 100 μM to 10 nM with a final DMSO concentration in the assay of 1%. The experiments were pursued in modification of the originally published protocol (Korff and Augustin: J Cell Sci 112: 3249-58, 1999). In brief, spheroids were prepared as described by Korff and Augustin: J Cell Biol 143: 1341-52, 1998) by pipetting 500 endothelial cells (EC) in a hanging drop on plastic dishes to allow overnight spheroid aggregation. 50 EC spheroids were then embedded in 0.9 ml of a 3D collagen matrix and pipetted into individual wells of a 24 well plate to allow polymerization.
(§2) Plates were incubated at 37° C. for 24 hours and fixed by adding 4% paraformaldehyde. The cumulative sprout length of 10 randomly selected spheroids per data point was analyzed and the relative inhibition by the test compound determined. Fitting of IC50 curves and calculation of IC50 values was performed with GraphPad Prism 5.01. Sprouting intensity of EC and fibroblast spheroids was quantitated by an image analysis system using an inverted microscope and the digital imaging software Analysis 3.2 (Soft imaging system, Munster, Germany). In parallel NHDF (fibroblast) spheroids were embedded in a 3D collagen gel and treated for 24 h with different concentrations of IMD-019064. The cumulative sprout length of 10 randomly selected spheroids per data point was analyzed according to the procedure used for the HUVEC experiment.
The same assays were performed with IMD-026260; IMD-026259; Sutent® (Sunitinib) and Sorafenib (Nexavar®) (see Table 3 for final compound concentrations).

HUVEC [2] = assay: Spheroid-based angiogenesis assay, VEGF-A induced HUVEC sprouting; format: cell-based, human; details: after hypoxic or VEGF induction, summary statement
Protocol: As described in Example 4 HUVEC spheroids were generated, cultivated and embedded in a 3D collagen gel and stimulated with Vascular Endothelial Growth Factor alpha [VEGF-A; 25 ng/ml] instead of deferoxamine. Cell spheroids were treated for 24 h with different concentrations of IMD-026259; IMD-026260; Sutent® (Sunitinib) and Sorafenib (Nexavar®) (in Molar [M], as indicated in Table 4; see also FIG. 14A).
The cumulative sprout length of 10 randomly selected spheroids per data point was analyzed and the relative inhibition by the test compound determined. Fitting of IC50 curves and calculation of IC50 values was performed with GraphPad Prism® 5.01 (trademarked by GraphPad Software Inc.). […] Results from the examples described above are summarized in FIG. 14b IC50 values are given in nM for in vitro angiogenesis (HUVEC sprouting) studies after hypoxic or VEGF induction.

[3] = tested on: cell-free protein translation (BMV mRNA, ribosomes); assay: Cell-free protein translation of Brome mosaic virus (BMV) mRNA with ribosomes; format: biochemical; details: for effect on in vitro protein translation: relevant (nM) concentrations, SDS-PAGE
Protocol: The effect of IMD-019064 on cell-free protein translation in vitro was investigated (see also assay principle in FIG. 8). Brome mosaic virus (BMV) mRNA encoding for 4 different viral proteins was incubated with ribosomes in the presence and absence of IMD-019064 (FIG. 9a), IMD-026259, IMD-026260 (FIG. 9b), or cycloheximide (Chx, 10 μM) (positive control) and the formed proteins analyzed by SDS-PAGE.
Panels show representative SDS-PAGE protein gels. Vehicle-containing translation reactions (Veh) represent 100% translation efficacy, while Cycloheximide (Chx; 10 μg/ml) a known inhibitor of protein translation that was used as a positive control does show significant protein reduction.

HIF-1 = assay: HIF-1-dependent luciferase reporter gene activity in 293T cells under hypoxia; format: cell-based, human; details: for time-dependency of inhibition of HIF-1-dependent luciferase expression: 250 nM, added 4 hours after induction of hypoxia (8 h, 1% O2)
Protocol: A HIF-1-dependent luciferase reporter gene was transfected into 293T cells by transfection with Rotifect™ (Trademarked by Carl Roth GmbH; Karlsruhe, Germany) or alternatively into Jurkat T cells by electroporation. Both cell lines were transfected with a HIF-1-dependent reporter gene. The next day, cells were preincubated for 1 h with the indicated, submicromolar concentrations of the test compounds and then incubated for further 8 h under normoxic or hypoxic (1% O2) conditions. After that, cells were harvested followed by the analysis of luciferase activity in a luminometer.
A HIF-1-dependent luciferase reporter gene was transfected into 293T cells. The next morning, cells were pretreated for 1 h with the indicated concentrations of compounds, followed by induction of hypoxia (hypoxia chamber) for 8 h. Subsequently cells were harvested and lyzed. Luciferase activity in cell extracts was measured in a luminometer (Duo Lumat LB 9507, Berthold) by injecting 20 microliter of assay buffer to 20 microliter of extract. Light emission was measured for 10 s, relative light units are given.
After transfection of 293T cells with a HIF-1-dependent luciferase reporter gene, cells were further incubated under normoxic or hypoxic (8 h, 1% O2) conditions as shown in FIG. 4. Effectively blocking concentrations of the IMDs (250 nM each) were added either 1 hour prior to hypoxia or 2 and 4 hours after induction of hypoxia.

IKKy/NEMO = assay: Cellular protein translation in 293T cells (anti-IKKy/NEMO immunoblotting); format: cell-based, human; details: 10 h and 24 h; for anti-IKKy/NEMO signal (cellular protein translation): 100 nM
Protocol: 293T cells were grown in the presence of the known translation inhibitor cycloheximide (10 μg/ml) and 100 nM of IMD-019064, IMD-026259 and IMD-026260 respectively. […] Cells were harvested after 10 h and 24 h and cell lysates were produced. Equal amounts of protein contained in the cell lysates were used for immunoblotting with anti-IKKy/NEMO antibodies as shown in FIG. 12. IKKy/NEMO is a constitutively expressed relatively labile protein. Thus successful inhibition of cellular protein translation should result in significant decline of anti-IKKy/NEMO signal.

[4] = tested on: PDK1 (pyruvate dehydrogenase kinase1); assay: HIF-1 target gene PDK1 expression in 293T cells by real-time PCR; format: cell-based; details: Homo sapiens, HEK-293T, 1 h pretreatment, 8 h hypoxia, read-out: IC50, suppression of endogenous PDK1 gene expression
Protocol: Human 293T cells were cultivated either under normoxic conditions or under hypoxic conditions (1% oxygen) for 4 and 8 hs respectively. Cells were harvested, followed by the isolation of RNA and the generation of cDNAs from Oligo (dT)20 primers using a Reverse Transcriptase kit. Then gene expression was measured by real-time PCR for the following two selected HIF-1α target genes: LDH-A (lactate dehydrogenase isoform A), and PDK1 (pyruvate dehydrogenase kinase1). Real-time PCR was performed with cDNA using specific primers and the SYBR Green I detection chemistry system (Applied Biosystems), utilizing an ABI Prism 7300 system. Actin was also measured as an internal control. The relative abundance of the different genes was calculated by the comparative CT method. In order to facilitate comparison, gene expression under normoxic conditions was arbitrarily set to 1 for each of the three genes. Two independent experiments confirmed PDK1 as the gene which was induced most prominently compared to LDH.
To investigate the capability of the compounds to inhibit PDK1, 293T cells were pretreated for 1 h with 3 different concentrations of the respective inhibitors (IMD-019064; IMD-026259; and IMD-026260). Subsequently, cells were incubated under normoxic/hypoxic conditions for further 8 h and the expression of PDK1 was quantified by real-time PCR as described above.

HIF-1α mRNA = assay: Hif-1α mRNA expression by real-time PCR; format: cell-based; details: human cells, 250 nM for 3 h, normoxic or hypoxic (45 minutes, 1% O2)
Protocol: In order to investigate whether the compounds of the invention do exert their HIF-1-1 suppressive action via inhibition of HIF-1-1 transcription the compounds were tested for their effects on HIF-1α mRNA production. In all experiments, human cells were exposed to efficiently blocking concentrations (250 nM) of the test compounds for 3 h. Then cells were further cultivated under normoxic or hypoxic conditions (45 minutes, 1% O2) respectively. Afterwards cell samples were harvested and RNA was extracted. cDNA was synthesized using specific primers and the PE Applied Biosystems Reverse Transcription Reagents. Real-time PCR was performed by using the SYBR Green I detection chemistry (Applied Biosystems) and an ABI Prism 7300 system. The expression of Hif-1α was quantified and results were normalized to Hprt1 and β-Actin (“housekeeping-gene”) expression. The relative abundance of the different genes was calculated by the comparative CT method. HIF-1α transcription of normoxic control cells was arbitrarily set to 1. […] Therefore an effect of IMD-compounds on HIF-1-dependent gene expression seems not to be mediated on HIF-1α transcription (FIG. 5).

endothelial cells = assay: Incorporation of radiolabeled amino acids into unstimulated and IL-1b-stimulated endothelial cells; format: cell-based
Protocol: Compounds of the formula (I) have been reported in the literature to be un-specific inhibitors of protein synthesis. Thus, the question whether IMD-019064 (a rocaglaol derivative) is a direct inhibitor of protein synthesis has been addressed at different levels. Cellular assays (incorporation of radiolabeled amino acids into unstimulated and IL-1b-stimulated endothelial cells) were performed in order to investigate if inhibition of activated signaling cascades (e.g. IL-1 signalling pathway) may contribute to inhibitory activity of IMD-019064.

NHDF (fibroblast) = NHDF (fibroblast) spheroid sprouting/scattering in 3D collagen gel; format: cell-based; details: Homo sapiens, 24 h, read-out: IC50, NHDF fibroblast spheroid sprouting/scattering
Protocol: as §1, with “50 EC spheroids were then embedded in 0.9 ml of a 3D collagen matrix and pipetted into individual wells of a 24 well plate to allow polymerization.” left out
as §2, with “Fitting of IC50 curves and calculation of IC50 values was performed with GraphPad Prism 5.01.” left out, “In parallel NHDF (fibroblast) spheroids were embedded in a 3D collagen gel and treated for 24 h with different concentrations of IMD-019064.” left out, “experiment. […]” for “experiment.”

HIF-1α protein = assay: Hypoxia induced HIF-1α protein accumulation in 293T cells (immunoblotting); format: cell-based, human; details: 250 nM, 1 h preincubation, hypoxia 4 h, 1% O2
Protocol: Effects of IMD-026259, IMD-026260 and IMD-019064 on the stabilisation/accumulation of HIF-1α protein were investigated. 293T cells were preincubated with the indicated concentrations of all three compounds. After 1 h of pre-incubation, 293T cells were pre-incubated with the indicated concentrations of compounds and then further incubated under normoxic or hypoxic (4 h, 1% O2) conditions respectively. After lysis of cells in 1×SDS sample buffer and sonication, the samples were analyzed for HIF-1α abundance by immunoblotting.

CNC(=O)c1cc(Oc2ccc(NC(=O)Nc3ccc(Cl)c(C(F)(F)F)c3)cc2)ccn1 [Nexavar, Sorafenib, reference compound]
activity on HUVEC sprouting (HUVEC [1]; HUVECs induced by Deferoxamine (hypoxia)): did not show any activity at all

OC1CC(c2ccccc2)C2(c3ccc(Cl)cc3)Oc3cc(OCCN4CCCC4)ccc3C12O (centres unmarked) [IMD-026259, (1,3a,8b)-3a-(4-chlorophenyl)-3-phenyl-6-(2-(pyrrolidin-1-yl)ethoxy)-2,3,3a,8b-tetrahydro-1H-benzo[d]cyclopenta[b]furan-1,8b-diol]
inhibition of angiogenic sprouting in vitro (HUVEC sprouting) (HUVEC [2]): potent inhibitors of angiogenic sprouting in vitro
effect on in vitro protein translation [3]: No significant effect
time-dependency of inhibition of HIF-1-dependent luciferase expression (HIF-1): able to inhibit HIF-1-dependent luciferase expression even when added 4 hours after hypoxic induction
IC50 (HIF-1; Homo sapiens, HEK-293T, 1 h pretreatment, hypoxia 8 h, read-out: IC50, HIF-1 luciferase inhibitory activity): 19 nM
anti-IKKy/NEMO signal (cellular protein translation) (IKKy/NEMO): did not result in reduced anti-IKKy/NEMO signals
IC50 [4]: 9 nM
effect on Hif-1α mRNA production (HIF-1α mRNA): did not show any effects

COc1ccc(C23Oc4cc(OC)cc(OC)c4C2(O)C(O)CC3c2cccc(F)c2)cc1 (centres unmarked) [IMD-019064, (1,3,3a,8b)-3-(3-fluorophenyl)-6,8-dimethoxy-3a-(4-methoxyphenyl)-2,3,3a,8b-tetrahydro-1H-benzo[d]cyclopenta[b]furan-1,8b-diol]
shift of the dose-response curve to higher concentrations, un-stimulated compared to IL-1 stimulated cells, inhibition of amino acid incorporation (endothelial cells): 20 factor
inhibition of angiogenic sprouting in vitro (HUVEC sprouting) (HUVEC [2]): potent inhibitors of angiogenic sprouting in vitro
effect on in vitro protein translation [3]: No significant effect
IC50 (NHDF (fibroblast)): 180 nM
block of HIF-1α protein accumulation (HIF-1α protein): almost completely block
time-dependency of inhibition of HIF-1-dependent luciferase expression (HIF-1): able to inhibit HIF-1-dependent luciferase expression even when added 4 hours after hypoxic induction
anti-IKKy/NEMO signal (cellular protein translation) (IKKy/NEMO): did not result in reduced anti-IKKy/NEMO signals
effect on Hif-1α mRNA production (HIF-1α mRNA): did not show any effects
IC50 (HUVEC [1]; Homo sapiens, HUVEC, 24 h, read-out: IC50, hypoxia induced EC (HUVEC) sprouting): 30 nM
difference in HUVEC and fibroblast sensitivity (HUVEC [1]; NHDF IC50 versus Deferoxamine-induced HUVEC IC50): factor six

C[C@@H]1C[C@@H]([C@H](O)CC2CC(=O)NC(=O)C2)C(=O)[C@@H](C)C1 [cycloheximide, reference compound]
effect on in vitro protein translation (positive control) ([3]; cycloheximide 10 μM / 10 μg/ml): potently suppressed formation of newly synthesized proteins
inhibition of cellular protein translation (positive control) (IKKy/NEMO; cycloheximide 10 μg/ml): powerful inhibition of protein translation
